The nature of series [1]: Odor unpleasantness of samples exposed to malodorant solution, evaluated by a panel of expert graders. Particulars: % relative unpleasantness vs. reference (malodorant solution = 100); 10 ml of 0.1% aqueous ammonia; 16 mg total odor control material; five expert graders, 4 replicates, 25° C. The method, then:
For proving the synergistic effect on odor reduction several test samples are prepared by exposing them to a 0.1% aqueous solution of ammonia, which serves as a test malodorous substance. The first data point in table 2 serves as a benchmark as it represents the degree of unpleasantness of the ammonia solution without added odor control material. Data points 2-3 in table 2 are illustrating the malodor-reducing activity of two exemplary odor control materials alone, specifically alpha-amylcinnamaldehyde as exemplary aldehyde and menthyl acetate as an exemplary odor control material acting on the nose receptors. The last data point 4 in table 2 is illustrating the activity of the odor control system of the present invention. For comparability, two individual odor control materials were mixed at half their amount compared to data points 2-3. Data point 4 was obtained by testing a mixture of alpha-Amylcinnamaldehyde and menthyl acetate. […] Thus, synergistic odor control activity has been proven. Further, odor unpleasantness and pleasantness of these samples was evaluated by a panel of expert graders. In particular, five different expert graders evaluated 4 replicates for each sample. Odor unpleasantness was evaluated by using a scale from −10 to +0, where—10 indicates the max odor unpleasantness, 0 indicates no odor. […]

Series [2] is described as follows: Thermogravimetric analysis (TGA), weight loss over time at 40° C. The class given is physicochemical. To be noted: samples kept at 40° C. for 180 minutes, mixture = menthyl acetate (10%) + silica gel (ex Grace, coded 123). Here is the method:
The stabilization effect has been proven by running a Thermogravimetric analysis (TGA) on samples of narrow silica gel treated with 10 weight-% of menthyl acetate. Specifically, the method is based on evaluation of weight loss over time at specific temperature (40° C.). The samples were kept at 40° C. for 180 minutes. In order to have a basis for comparison the TGA analysis was performed on a sample of pure menthyl acetate and a sample of pure silica gel as references together with a sample of menthyl acetate (10%)+silica gel (ex Grace, coded 123).

As for `CCCCCC(C=O)=Cc1ccccc1` [Alpha-Amylcinnamaldehyde, alpha-amylcinnamaldehyde], in series [1], the Odor unpleasantness stood at 64%.
For `CC(=O)OC1CC(C)CCC1C(C)C` (stereo not drawn) [Menthyl acetate, menthyl acetate], the “Weight Loss” value in series [2] is recorded as about 100%. Moreover, the Odor unpleasantness in series [1] is given as 46%.
